# Experimental data published in PubChem BioAssay (NCI).
# “And” between values parts separate entries of the source, which are not always exact repeats. Equal entries are not always repeated.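 Protocol summary: plate cells (96-well), add compound at 5 concentrations, incubate 48 h, interpolate endpoints linearly. The concentration for 50% growth inhibition is given as GI50. At the TGI there is no net growth.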 Where a SMILES comes first, the peptide text is derived from it. Bridges are numbered along the chain shown (N, C = ends). [ ]: non-standard residue; d: D form. Aib = CC(C)(N)C(=O)O; βAla = NCCC(=O)O
# How the values were obtained:
# Test in all cases: NCI tumour cell line growth inhibition, 48 h
# ACHN renal = tested on: ACHN renal
# HCT-116 colon = tested on: HCT-116 colon
# A498 renal = tested on: A498 renal
# SF-295 CNS = tested on: SF-295 CNS
# HL-60(TB) leukemia = tested on: HL-60(TB) leukemia
# MALME-3M melanoma = tested on: MALME-3M melanoma
# RXF 393 renal = tested on: RXF 393 renal
# MDA-MB-435 = tested on: MDA-MB-435
# 786-0 renal = tested on: 786-0 renal
# U251 CNS = tested on: U251 CNS
# SR leukemia = tested on: SR leukemia
SMILES,TGI (ACHN renal),TGI (HCT-116 colon),TGI (A498 renal),TGI (SF-295 CNS),TGI (HL-60(TB) leukemia),TGI (MALME-3M melanoma),TGI (RXF 393 renal),TGI (MDA-MB-435),TGI (786-0 renal),TGI (U251 CNS),TGI (SR leukemia),GI50 (ACHN renal),GI50 (HCT-116 colon),GI50 (A498 renal),GI50 (SF-295 CNS),GI50 (MALME-3M melanoma),GI50 (RXF 393 renal),GI50 (U251 CNS)
CN(C)C(C1=C(O)C(c2ccccc2)N(c2ccccc2)C1=O)N1CCOCC1 (stereo not drawn),> 10 µM,> 10 µM,> 10 µM,> 10 µM,> 10 µM,> 10 µM,> 10 µM,> 10 µM,> 10 µM,> 10 µM,–,–,–,–,–,–,–,–
Cc1nc2sccn2c1C(=O)NN,> 100 µM,> 100 µM,–,> 100 µM,> 100 µM,> 100 µM,> 100 µM,–,> 100 µM,> 100 µM,> 100 µM,–,–,–,–,–,–,–
OC12c3ccccc3C1CCCCC2N1CCCC1 (stereo not drawn),> 100 µM,> 100 µM,–,> 100 µM,> 100 µM,> 100 µM,> 100 µM,–,> 100 µM,> 100 µM,> 100 µM,–,–,–,–,–,–,–
N#CC(c1ccccc1)N(CCCCCCN(C(=O)c1ccccc1)C(C#N)c1ccccc1)C(=O)c1ccccc1 (stereo not drawn),> 100 µM,83.4 µM,55.9 µM,> 100 µM,> 100 µM,> 100 µM,> 100 µM,73.6 µM,> 100 µM,> 100 µM,–,–,–,–,–,–,–,–
CSc1nc(-c2ccc(Cl)cc2)c(C#N)c(=O)n1C1OC(COC(C)=O)C(OC(C)=O)C(OC(C)=O)C1OC(C)=O (stereo not drawn),> 100 µM,> 100 µM,38.9 µM and > 100 µM,39 µM and > 100 µM,> 100 µM,> 100 µM,25.6 µM and > 100 µM,–,> 100 µM,71.6 µM and > 100 µM,> 100 µM,24 µM and > 100 µM,23.1 µM and > 100 µM,17.6 µM and > 100 µM,14.8 µM and > 100 µM,30.7 µM and 77.8 µM,10.6 µM and > 100 µM,20.6 µM and > 100 µM
CN=C1Nc2ccccc2C(=O)N2CSCC12 (stereo not drawn),> 100 µM,> 100 µM,> 100 µM,> 100 µM,–,> 100 µM,> 100 µM,> 100 µM,> 100 µM,> 100 µM,> 100 µM,–,–,–,–,–,–,–
CSC1=N/C(=C\c2ccc(Cl)cc2)C(=O)N1CN1CCCCC1,96.2 µM,> 100 µM,> 100 µM,> 100 µM,–,91.7 µM,–,> 100 µM,> 100 µM,> 100 µM,> 100 µM,–,–,–,–,–,–,–
COc1ccc(C(=O)C#Cc2cn(C3CC(O)C(CO)O3)c(=O)[nH]c2=O)cc1 (stereo not drawn),> 100 µM,> 100 µM,–,> 100 µM,> 10 µM,22.7 µM,> 100 µM,> 100 µM,> 100 µM,> 100 µM,–,–,–,–,–,–,–,–
COc1ccc2c3c1OC1C(F)C=CC4(O)C(C2)NCCC314 (stereo not drawn),10.8 µM,3.01 µM,15.6 µM,21.9 µM,–,5.56 µM,7.98 µM,3.34 µM,3.27 µM,6.59 µM,4.42 µM,–,–,–,–,–,–,–
COc1cc2cc(OC(C)=O)c3cc4c(cc3c2c(OC)c1OC)OCO4,> 100 µM,> 100 µM,> 100 µM,> 100 µM,> 100 µM,> 100 µM,> 100 µM,–,> 100 µM,> 100 µM,–,–,–,–,–,–,–,–
CC(/C=C/C(=O)NO)=C\C(C)C(=O)c1ccc(N(C)C)cc1 (stereo not drawn),0.0942 µM,11.5 µM,0.257 µM,0.454 µM,2.53 µM,0.0239 µM,0.104 µM,0.0467 µM,6.42 µM,0.0354 µM,–,–,–,–,–,–,–,–
NC1N=C(c2ccc(Cl)cc2)C2=C(N1)c1ccccc1CC2 (stereo not drawn),> 100 µM,> 56.9 µM,> 100 µM,> 100 µM,10.6 µM,> 100 µM,50.1 µM,> 22.6 µM,> 73.1 µM,> 100 µM,–,–,–,–,–,–,–,–
C=CC(=O)Nc1ccc(NC(=O)C=C)c2c1C(=O)c1ccccc1C2=O,> 100 µM,> 100 µM,> 100 µM,49.8 µM,24.7 µM,> 100 µM,–,–,84.6 µM,> 100 µM,> 100 µM,–,–,–,–,–,–,–
CC1=C(C#N)C(=C(C#N)C#N)OC1(C)Cc1ccccc1 (stereo not drawn),32.7 µM,> 100 µM,> 100 µM,> 100 µM,–,–,37.6 µM,> 100 µM,> 100 µM,> 100 µM,–,–,–,–,–,–,–,–
CCc1cccc(C(C)C)c1NC(=O)C(=O)C1C(=O)Nc2ccccc2S1=O (stereo not drawn),> 100 µM,> 100 µM,> 100 µM,> 100 µM,–,> 100 µM,> 100 µM,> 100 µM,> 100 µM,> 100 µM,> 100 µM,–,–,–,–,–,–,–
CC(=O)OC[C@H]1CN(OC(C)=O)C[C@@H](n2cc(C)c(=O)[nH]c2=O)O1,> 100 µM,> 100 µM,> 100 µM,> 100 µM,> 100 µM,–,> 100 µM,> 100 µM,> 100 µM,> 100 µM,–,–,–,–,–,–,–,–

SMILES,TGI (ACHN renal),TGI (HCT-116 colon),TGI (A498 renal),TGI (SF-295 CNS),TGI (HL-60(TB) leukemia),TGI (MALME-3M melanoma),TGI (RXF 393 renal),TGI (MDA-MB-435),TGI (786-0 renal),TGI (U251 CNS),TGI (SR leukemia),GI50 (ACHN renal),GI50 (HCT-116 colon),GI50 (A498 renal),GI50 (SF-295 CNS),GI50 (MALME-3M melanoma),GI50 (RXF 393 renal),GI50 (U251 CNS)
Cc1ccc(C)n1-c1ccccc1C1C=Cn2c(=O)nnc3c(OC(C)C)c(OC(C)C)c(O)c1c32 (stereo not drawn),> 100 µM,70.1 µM,> 100 µM,> 100 µM,59.6 µM,76.5 µM,77.3 µM,58.5 µM,65.7 µM,> 100 µM,–,–,–,–,–,–,–,–
COc1ccc(CNc2cnc3cc(N)ccc3n2)cc1,> 100 µM,> 100 µM,–,> 100 µM,> 100 µM,> 100 µM,> 100 µM,–,> 100 µM,> 100 µM,> 100 µM,–,–,–,–,–,–,–
COc1cc(/C=C2\C(=O)N(C(=O)Cc3ccccc3)N=C2C)cc(OC)c1OC,> 100 µM,> 100 µM,–,> 100 µM,> 100 µM,> 100 µM,–,–,> 100 µM,–,> 100 µM,–,–,–,–,–,–,–
CC(C)(O)C(O)COc1c2c(cc3oc(=O)ccc13)OCO2 (stereo not drawn),> 100 µM,> 100 µM,> 100 µM,> 100 µM,> 100 µM,> 100 µM,> 100 µM,–,> 100 µM,> 100 µM,> 100 µM,–,–,–,–,–,–,–
Cc1c(C)c2ccc(OCC(O)COC(C)C)c(C)c2oc1=O (stereo not drawn),> 100 µM,36 µM,–,> 100 µM,60.3 µM,30.3 µM,–,–,> 10 µM,33.8 µM,87.4 µM,–,–,–,–,–,–,–
CC1(C)NC(=O)C(NC(=O)C(N)CC(=O)O)CCCCNC(=O)CCNC1=O (stereo not drawn) (H-DK[Aib][βAla]; lactam 2-C; configuration not given here),> 100 µM,> 100 µM,> 100 µM,> 100 µM,–,> 100 µM,> 100 µM,> 100 µM,> 100 µM,> 100 µM,–,–,–,–,–,–,–,–
CCOC1OC(COC(=O)C(C)(C)C)C(O)CC1n1cc(C)c(=O)[nH]c1=O (stereo not drawn),> 100 µM,> 100 µM,> 100 µM,> 100 µM,–,> 100 µM,> 100 µM,> 100 µM,> 100 µM,> 100 µM,> 100 µM,–,–,–,–,–,–,–
C[C@H](C1CC(C)(O)C(C)(O)C(O)O1)[C@H]1CC[C@H]2[C@@H]3[C@@H]4O[C@@H]4[C@@]4(O)CC=CC(=O)[C@]4(C)[C@H]3CC[C@]12C (stereo partly drawn),> 50 µM,> 50 µM,> 50 µM,> 50 µM,> 50 µM,31.5 µM,> 50 µM,> 50 µM,> 50 µM,> 50 µM,–,–,–,–,–,–,–,–
COc1cc(C2C(Cl)C(=O)N2NC(=O)Cc2ccccc2)cc(Br)c1O (stereo not drawn),> 100 µM,> 100 µM,–,> 100 µM,> 100 µM,> 100 µM,> 100 µM,–,> 100 µM,> 100 µM,> 100 µM,–,–,–,–,–,–,–
OC1(C(Sc2cc(C(F)(F)F)cc(C(F)(F)F)c2)Sc2cc(C(F)(F)F)cc(C(F)(F)F)c2)C=CCCC1 (stereo not drawn),5.77 µM,6.74 µM,4.58 µM,6.39 µM,3.97 µM,8.81 µM,4.77 µM,7.03 µM,8.09 µM,–,–,–,–,–,–,–,–,–
O=c1nc2n3c4c(cccc4nc-2c(=O)[nH]1)CCC3,> 100 µM,> 100 µM,–,> 100 µM,> 100 µM,39.2 µM,> 100 µM,> 100 µM,> 100 µM,> 100 µM,–,–,–,–,–,–,–,–
COC(=O)[C@]12CC3C=CC1N(C3)C(CBr)c1c2n(S(=O)(=O)c2ccccc2)c2ccccc12 (stereo partly drawn),> 100 µM,> 100 µM,–,> 100 µM,> 100 µM,> 100 µM,> 100 µM,> 100 µM,> 100 µM,> 100 µM,–,–,–,–,–,–,–,–
C=C(C)C12CC3CC(/C(=N/O)C(C1)/C3=N\O)[C@@]2(C)O (stereo partly drawn),> 100 µM,> 100 µM,–,> 100 µM,> 100 µM,> 100 µM,> 100 µM,–,> 100 µM,> 100 µM,> 100 µM,–,–,–,–,–,–,–
CSC12c3cc(C)n(-c4ccc([N+](=O)[O-])cc4)c3CC(C)(C)CN1C(=O)C2Oc1ccccc1 (stereo not drawn),> 100 µM,> 100 µM,> 100 µM,> 100 µM,–,–,> 100 µM,> 100 µM,> 100 µM,> 100 µM,> 100 µM,–,–,–,–,–,–,–
CO/C=C/C=C(\C#N)C(=O)OC,> 100 µM,> 100 µM,> 100 µM,> 100 µM,–,> 100 µM,–,> 100 µM,> 100 µM,> 100 µM,> 100 µM,–,–,–,–,–,–,–
COc1cccc2c1c1ccc3c(c1n2C)C(=O)C=CC3=O,28.6 µM,27.2 µM,> 100 µM,> 100 µM,> 100 µM,27.1 µM,–,–,31.4 µM,> 100 µM,6.65 µM,–,–,–,–,–,–,–
